Measured values: PubChem BioAssay AID1963442 (Molecular Pharmacology Branch, DTP, NCI, 2024)

Tested on: MPNST complex spheroid with HUVEC/MSC, growth, % test/control
Assay: Anticancer human tumor MPNST cell line growth inhibition [Asc];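 further: compounds left on spheroids for seven days before reading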
Conditions: for IC50: curve of first compound; for viability, T/C: stronger effect = lower value
Summary of the method: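 Spheroid model: tumor line + HUVEC + hMSC. Single agents and combinations; top conc. at/near clinical Cmax (10 microM if undetermined), half-log dilutions. DMSO stocks at 800-fold test concentration.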

[1] = second compound 0.00316 µM, first compound 0.0316 µM
[2] = second compound 0.00316 µM, first compound 0.1 µM
[3] = second compound 0.01 µM, first compound 0.0316 µM
[4] = second compound 0.01 µM, first compound 0.1 µM
[5] = second compound 0.0316 µM, first compound 0.0316 µM
[6] = second compound 0.0316 µM, first compound 0.1 µM
[7] = second compound 0.1 µM, first compound 0.0316 µM
[8] = second compound 0.1 µM, first compound 0.1 µM
[9] = second compound 0.316 µM, first compound 0.0316 µM
[10] = second compound 0.316 µM, first compound 0.1 µM
[11] = second compound 1 µM, first compound 0.0316 µM
[12] = second compound 1 µM, first compound 0.1 µM

`Cc1nc(N2CCC3(CC2)COC(C)C3N)c(CO)nc1Sc1ccnc(N)c1Cl` (centres undefined) + CCN1C(C(=O)NC23CCC(C(=O)O)(CC2)CC3)C(c2cccc(Cl)c2F)C2(C(=O)Nc3cc(Cl)ccc32)C12CCCCC2 gave an IC50 (second compound 0.03 µM) of over 3 µM, an IC50 (second compound 0.0949 µM) of over 3 µM and an IC50 (second compound 0.3 µM) of over 3 µM. For the same compound, the IC50 (second compound 0.949 µM) was over 3 µM, the IC50 (second compound 3 µM) was over 3 µM and the viability, T/C (second compound 0.03 µM, first compound 0.00949 µM) was 92%. It also gave a viability, T/C (second compound 0.03 µM, first compound 0.03 µM) of 84.1%, a viability, T/C (second compound 0.03 µM, first compound 0.0949 µM) of 90.7% and a viability, T/C (second compound 0.03 µM, first compound 0.3 µM) of 87.9%. It also gave a viability, T/C (second compound 0.03 µM, first compound 0.949 µM) of 101%, a viability, T/C (second compound 0.03 µM, first compound 3 µM) of 75.5% and a viability, T/C (second compound 0.0949 µM, first compound 0.00949 µM) of 83.8%. It also gave a viability, T/C (second compound 0.0949 µM, first compound 0.03 µM) of 89%, a viability, T/C (second compound 0.0949 µM, first compound 0.0949 µM) of 92.2% and a viability, T/C (second compound 0.0949 µM, first compound 0.3 µM) of 82.2%. For the same compound, the viability, T/C (second compound 0.0949 µM, first compound 0.949 µM) was 75.5%, the viability, T/C (second compound 0.0949 µM, first compound 3 µM) was 58.3% and the viability, T/C (second compound 0.3 µM, first compound 0.00949 µM) was 101%. The viability, T/C (second compound 0.3 µM, first compound 0.03 µM) was 83.6%, the viability, T/C (second compound 0.3 µM, first compound 0.0949 µM) was 92.8% and the viability, T/C (second compound 0.3 µM, first compound 0.3 µM) was 77.2%. It also gave a viability, T/C (second compound 0.3 µM, first compound 0.949 µM) of 83.2%, a viability, T/C (second compound 0.3 µM, first compound 3 µM) of 63.4% and a viability, T/C (second compound 0.949 µM, first compound 0.00949 µM) of 77.9%. The viability, T/C (second compound 0.949 µM, first compound 0.03 µM) was 89.9%, the viability, T/C (second compound 0.949 µM, first compound 0.0949 µM) was 70% and the viability, T/C (second compound 0.949 µM, first compound 0.3 µM) was 76.7%. The viability, T/C (second compound 0.949 µM, first compound 0.949 µM) was 68%, the viability, T/C (second compound 0.949 µM, first compound 3 µM) was 54.4% and the viability, T/C (second compound 3 µM, first compound 0.00949 µM) was 66.3%. It also gave a viability, T/C (second compound 3 µM, first compound 0.03 µM) of 75.9%, a viability, T/C (second compound 3 µM, first compound 0.0949 µM) of 72.4% and a viability, T/C (second compound 3 µM, first compound 0.3 µM) of 67.8%. It also gave a viability, T/C (second compound 3 µM, first compound 0.949 µM) of 52.3% and a viability, T/C (second compound 3 µM, first compound 3 µM) of 55.8%.

`Cn1ncnc1[C@H]1c2n[nH]c(=O)c3cc(F)cc(c23)N[C@@H]1c1ccc(F)cc1` + CNC(C)C(=O)NC1CN(S(=O)(=O)c2cccc(S(=O)(=O)N3CCC4CCC(C(=O)NC(c5ccccc5)c5ccccc5)N4C(=O)C(NC(=O)C(C)NC)C3)c2)CCC2CCC(C(=O)NC(c3ccccc3)c3ccccc3)N2C1=O was tested, and the IC50 (second compound 0.00316 µM) was under 0.000316 µM, the IC50 (second compound 0.01 µM) was 0.00109 µM and the IC50 (second compound 0.0316 µM) was 0.0232 µM. The IC50 (second compound 0.1 µM) was 0.0821 µM, the IC50 (second compound 0.316 µM) was 0.0267 µM and the IC50 (second compound 1 µM) was 0.0967 µM. For the same compound, the viability, T/C (second compound 0.00316 µM, first compound 0.000316 µM) was 12.2%, the viability, T/C (second compound 0.00316 µM, first compound 0.001 µM) was 11.4% and the viability, T/C (second compound 0.00316 µM, first compound 0.00316 µM) was 10.4%. The viability, T/C (second compound 0.00316 µM, first compound 0.01 µM) was 11.5%, the viability, T/C [1] was 11.3% and the viability, T/C [2] was 10.7%. It also gave a viability, T/C (second compound 0.01 µM, first compound 0.000316 µM) of 58.8%, a viability, T/C (second compound 0.01 µM, first compound 0.001 µM) of 46.2% and a viability, T/C (second compound 0.01 µM, first compound 0.00316 µM) of 50.8%. The viability, T/C (second compound 0.01 µM, first compound 0.01 µM) was 37.4%, the viability, T/C [3] was 32.5% and the viability, T/C [4] was 34.8%. For the same compound, the viability, T/C (second compound 0.0316 µM, first compound 0.000316 µM) was 77.7%, the viability, T/C (second compound 0.0316 µM, first compound 0.001 µM) was 73.9% and the viability, T/C (second compound 0.0316 µM, first compound 0.00316 µM) was 73.6%. For the same compound, the viability, T/C (second compound 0.0316 µM, first compound 0.01 µM) was 65.4%, the viability, T/C [5] was 43.5% and the viability, T/C [6] was 45.2%. For the same compound, the viability, T/C (second compound 0.1 µM, first compound 0.000316 µM) was 90.3%, the viability, T/C (second compound 0.1 µM, first compound 0.001 µM) was 64.1% and the viability, T/C (second compound 0.1 µM, first compound 0.00316 µM) was 70.6%. For the same compound, the viability, T/C (second compound 0.1 µM, first compound 0.01 µM) was 74.7%, the viability, T/C [7] was 61.1% and the viability, T/C [8] was 46.4%. The viability, T/C (second compound 0.316 µM, first compound 0.000316 µM) was 76.2%, the viability, T/C (second compound 0.316 µM, first compound 0.001 µM) was 62.5% and the viability, T/C (second compound 0.316 µM, first compound 0.00316 µM) was 88.4%. For the same compound, the viability, T/C (second compound 0.316 µM, first compound 0.01 µM) was 57.5%, the viability, T/C [9] was 51.3% and the viability, T/C [10] was 46.1%. For the same compound, the viability, T/C (second compound 1 µM, first compound 0.000316 µM) was 51.3%, the viability, T/C (second compound 1 µM, first compound 0.001 µM) was 68.3% and the viability, T/C (second compound 1 µM, first compound 0.00316 µM) was 49.5%. It also gave a viability, T/C (second compound 1 µM, first compound 0.01 µM) of 73.9%, a viability, T/C [11] of 53.9% and a viability, T/C [12] of 50.1%.

With `O=C(c1cc(Cc2n[nH]c(=O)c3ccccc23)ccc1F)N1CCN(C(=O)C2CC2)CC1` + CNC(C)C(=O)NC1CN(S(=O)(=O)c2cccc(S(=O)(=O)N3CCC4CCC(C(=O)NC(c5ccccc5)c5ccccc5)N4C(=O)C(NC(=O)C(C)NC)C3)c2)CCC2CCC(C(=O)NC(c3ccccc3)c3ccccc3)N2C1=O the IC50 (second compound 0.00316 µM) was under 0.0316 µM, the IC50 (second compound 0.01 µM) was under 0.0316 µM and the IC50 (second compound 0.0316 µM) was 2.01 µM. For the same compound, the IC50 (second compound 0.1 µM) was 2.46 µM, the IC50 (second compound 0.316 µM) was 2.51 µM and the IC50 (second compound 1 µM) was 3.39 µM. For the same compound, the viability, T/C [1] was 12.7%, the viability, T/C [2] was 10.7% and the viability, T/C (second compound 0.00316 µM, first compound 0.316 µM) was 13.4%. It also gave a viability, T/C (second compound 0.00316 µM, first compound 1 µM) of 12.9%, a viability, T/C (second compound 0.00316 µM, first compound 3.16 µM) of 12.1% and a viability, T/C (second compound 0.00316 µM, first compound 10 µM) of 13.7%. The viability, T/C [3] was 41%, the viability, T/C [4] was 36.8% and the viability, T/C (second compound 0.01 µM, first compound 0.316 µM) was 50.4%. The viability, T/C (second compound 0.01 µM, first compound 1 µM) was 44.6%, the viability, T/C (second compound 0.01 µM, first compound 3.16 µM) was 26.4% and the viability, T/C (second compound 0.01 µM, first compound 10 µM) was 27.4%. The viability, T/C [5] was 76.2%, the viability, T/C [6] was 65.6% and the viability, T/C (second compound 0.0316 µM, first compound 0.316 µM) was 59.9%. For the same compound, the viability, T/C (second compound 0.0316 µM, first compound 1 µM) was 64.3%, the viability, T/C (second compound 0.0316 µM, first compound 3.16 µM) was 40.4% and the viability, T/C (second compound 0.0316 µM, first compound 10 µM) was 37.7%. For the same compound, the viability, T/C [7] was 76.5%, the viability, T/C [8] was 85% and the viability, T/C (second compound 0.1 µM, first compound 0.316 µM) was 82.4%. The viability, T/C (second compound 0.1 µM, first compound 1 µM) was 79.8%, the viability, T/C (second compound 0.1 µM, first compound 3.16 µM) was 41.8% and the viability, T/C (second compound 0.1 µM, first compound 10 µM) was 38.8%. For the same compound, the viability, T/C [9] was 100%, the viability, T/C [10] was 66% and the viability, T/C (second compound 0.316 µM, first compound 0.316 µM) was 84.7%. The viability, T/C (second compound 0.316 µM, first compound 1 µM) was 81.3%, the viability, T/C (second compound 0.316 µM, first compound 3.16 µM) was 41.8% and the viability, T/C (second compound 0.316 µM, first compound 10 µM) was 42.4%. For the same compound, the viability, T/C [11] was 75.8%, the viability, T/C [12] was 63.4% and the viability, T/C (second compound 1 µM, first compound 0.316 µM) was 60%. For the same compound, the viability, T/C (second compound 1 µM, first compound 1 µM) was 68.2%, the viability, T/C (second compound 1 µM, first compound 3.16 µM) was 45.3% and the viability, T/C (second compound 1 µM, first compound 10 µM) was 42%.
